“Also recorded” adds a separate entry of the source.
Key:
[1] = tested on: haemorrhagic E. coli; experiment: Example 6: haemorrhagic E. coli challenge of weaner pigs; type: in vivo; design: decrease in faecal shedding (total faecal culture scores) compared to saline treated controls / reduction in clinical signs compared to saline controls / reduction in E. coli culture scores at post-mortem compared to saline controls / reduction of bacterial load in the small intestine (foregut) compared with saline controls: concentration or dose not given beside the values
Description: Male weaner pigs, with a mean weight of 5.4 kg were allocated to groups of 8, with the mean weight being equalised between groups. Pigs were housed in group pens. Pigs were provided with pelleted feed and water ad libitum.
Pigs were treated with cytokines or the antibiotic, Apralan, and challenged with E. coli according to the schedule outlined in FIG. 42. E. coli were delivered orally in an 8 ml dose containing 10^8 cfu/ml. Blood was sampled from pigs by venipuncture at −2 days, day 0, and +6 days from initial challenge with E. coli as outlined in FIG. 42. Blood was assayed for immunological parameters as previously described. Pigs were weighed at day −2 and at the end of the trial on day 7.
Faecal samples were taken from each pig daily from day 2 to day 6 after challenge; these samples were cultured on sheep blood agar to quantify E. coli load. The condition of faeces on each day of challenge was noted as normal, wet or diarrhoea, as an indication of clinical signs.
At the conclusion of the experiment, pigs were euthanased and samples were taken from different areas in the gastro-intestinal tract, including the small intestine (25%, 50% and 75% along the length of the small intestine), the caecum and colon, and from the faeces. These post-mortem samples were also plated out on sheep blood agar to quantify E. coli load. Growth on sheep blood agar was scored from 0 to 5 (where 0 was no growth, 1 signified growth in the primary inoculum, 2 signified growth in the first streak, 3 signified growth in the 2nd streak, 4 signified growth in the 3rd streak, and 5 signified growth of E. coli in the final streak), and group means and standard errors were calculated.

[2] = tested on: Brachyspira (Serpulina) hyodysenteriae; experiment: Example 7: swine dysentery challenge, IL-5 prophylactic; type: in vivo, pigs
Excerpt: (§1) One aim of this example was to determine whether IL-5 could improve the health of pigs infected with an enteric inflammatory pathogen causing swine dysentery, Brachyspira (Serpulina) hyodysenteriae. A further aim was to determine whether IL-5 could improve the growth rate of pigs under conditions of challenge with swine dysentery.
(§2) Male pigs with a mean starting weight of 6.5 kg, were allocated to treatment groups consisting of eight pigs (Table 6). Pigs were housed in group pens, with each pen containing a replicate from each of the treatment groups. One group of 8 pigs was housed in a separate room and left uninfected to act as untreated controls. Pigs were provided with pelleted feed and water ad libitum.
(§3) Prior to swine dysentery challenge, pigs were treated with recombinant IL-5 or saline, as described in Table 6. Cytokines and the antibiotic, Lincomycin, were delivered by intramuscular injection at intervals outlined in Table 7. Pigs were infected with Brachyspira hyodysenteriae at day 0, day 1 and day 2, given as an oral bolus of 120 ml of spirochaete culture in log phase of growth, containing approximately […].
(§4) Faecal swabs and blood samples were taken from each pig at intervals described in Table 7. Faecal swabs were cultured for the presence of spirochaetes. Blood samples were assayed for immunological parameters as described in example 1 above. Pigs were weighed at weekly intervals throughout the experiment, which was terminated by euthanasia on days 19 and 20 after the initial challenge. At post mortem swabs from areas of the hindgut were cultured for the presence of spirochaetes, and the gross pathological condition of the gastro-intestinal tissue noted.

[3] = tested on: Brachyspira (Serpulina) hyodysenteriae; experiment: Example 13: swine dysentery challenge, IL-4 prophylactic; type: in vivo, pigs
Excerpt: as §1, with “The” for “One”, “IL-4” for “IL-5”
as §2, with “10).” for “6).”
as §3, with “IL-4” for “IL-5”, “10.” for “6.”, “Lincocin,” for “Lincomycin,”, “11.” for “7.”, “120ml” for “120 ml”
as §4, with “11.” for “7.”

[4] = cited from earlier work
[5] = tested on: Actinobacillus pleuropneumoniae; experiment: Example 12: Actinobacillus pleuropneumoniae (App) challenge: growth, clinical signs, lung pathology; type: in vivo, pigs
Excerpt: The following experiment was designed to determine whether IL-4 could improve the growth of immunologically challenged pigs compared to saline treated controls and positive controls treated with the non-steroidal anti-inflammatory drug (NSAID) Flunix. It was also devised to determine whether IL-4 could be delivered via plasmids.
Male pigs, with a mean starting weight of 52 kg, were allocated to 5 treatment groups (Table 8). Pigs were housed in group pens, with each pen containing a replicate from each of the treatment groups. Pigs were provided with pelleted feed and water ad libitum.
Recombinant IL-4 and saline were administered as 2 ml doses, given subcutaneously behind the ear. Plasmids were administered in 1 ml doses, given intramuscularly in the hind-leg. Flunix was administered as a 2 ml dose according to the manufacturer's instructions, and delivered intramuscularly in the neck. The timetable of administration is outlined in Table 9 below.
(§5) Due to the intermittent availability of Actinobacillus pleuropneumoniae (App), the App challenge was performed separately on the 2 rooms, resulting in different time schedules for each room, as outlined in Table 9. Prior to each challenge, pigs were treated with recombinant cytokines, flunix or plasmids as described above; the timing of treatments with respect to challenge is described in Table 9. Pigs were anaesthetised and infected intratracheally with 7.5×10^5 […] on day 0.
(§6) Briefly, assays were performed on blood samples using standard techniques, including: white blood cell counts performed using an automated cell counter; differential cell counts performed manually on stained blood smears; lymphocyte subset enumeration via flow cytometry; neutrophil function determined by flow cytometry; lymphocyte proliferation determined using a thymidine incorporation assay in response to mitogens; total IgG and IgA levels were identified using indirect sandwich ELISA; levels of mRNA for pro-inflammatory cytokines was detected by RT-PCR. TNF levels were additionally measured in serum by bioassay using L929 target cells. Pigs were weighed weekly from delivery of plasmids and for 2 weeks after challenge.
IL-4 delivered as a recombinant caused a reduction of 36% in the presence of clinical symptoms compared to pigs treated with saline, while IL-4 delivered in plasmid form produced a reduction of 62% compared to saline-treated controls (45% reduction compared to plasmid-treated controls).
At the conclusion of the trial, pigs were euthanased and the lungs removed for post-mortem examination. Lungs were scored for pleurisy from 0-5 (FIG. 79) and the degree of pleuropneumonia was determined by weighing affected lung and expressed as a percentage of total lung weight (FIG. 80).

[6] = tested on: TNFα; experiment: Example 12: TNFα in serum after App challenge (bioassay, L929 target cells); type: in vivo, pigs; details: day 13 after challenge
Description: as §5
[…] Blood was assayed for immunological parameters as previously described.
as §6

For `CN[C@@H]1[C@@H](O[C@H]2O[C@H](CO)[C@@H](N)[C@H](O)[C@H]2O)OC2C[C@@H](N)[C@@H](O[C@H]3[C@H](O)[C@@H](O)[C@H](N)C[C@@H]3N)OC2[C@@H]1O` (stereo partly drawn) [Apralan, reference compound], which “clinical signs (wet faeces or diarrhoea)” value ([1]; 5 days after challenge) is on record?
Its value is “less recordings of wet faeces than did saline controls, but also displayed a minor increase in the prevalence of diarrhoea”.

And the “E. coli shedding in faeces (faecal culture)” value ([1]; day 2 to day 6 after challenge)?
The value was “decreased E. coli shedding in faeces; also recorded: least bacterial shedding of all treatments”.

And the “decrease in faecal shedding (total faecal culture scores) compared to saline treated controls” value ([1]; entire challenge period)?
Its value is 80%.

What about the “appetite (daily feed intake per pig) during E. coli challenge” value ([1]; pig, in vivo) of the same compound?
The value was “improved appetite compared to saline treated pigs”.

And the “bacterial load in areas of the gastro-intestinal tract at post-mortem” value ([1]; pig, in vivo)?
Its value is “reduced bacterial load in most areas of the gastro-intestinal tract”.

And the “group mean total E. coli culture score at post-mortem (out of a possible 30)” value ([1]; pig, in vivo)?
The value was 12.

And the “reduction in clinical signs compared to saline controls” value ([1]; pig, in vivo)?
The value was 27%.

What about the “bacterial loads in the hindgut area (caecum and colon)” value ([1]; post-mortem) of the same compound?
Its value is “lowest of all treatments”.

What about the “reduction of bacterial load in the small intestine (foregut) compared with saline controls” value ([1]; post-mortem) of the same compound?
The value was 32%.

For `CCC[C@@H]1C[C@@H](C(=O)N[C@@H]([C@H]2O[C@H](SC)[C@H](O)[C@@H](O)[C@H]2O)[C@@H](C)O)N(C)C1` [Lincocin, Lincomycin, reference compound], which “spirochaete shedding in faeces (faecal culture)” value ([2]; after challenge) is on record?
Its value is “no signs of faecal spirochaete shedding by day 14”.

And the “reduction in the number of spirochaetes compared to saline treated pigs” value (from here on “reduction in the number of spirochaetes”) ([2]; anterior colon, post mortem)?
Its value is 89%.

What about the “reduction in the number of spirochaetes” value ([2]; caecum, post mortem) of the same compound?
The value was 93%.

And the “reduction in the number of spirochaetes” value ([2]; faecal, post mortem)?
The value was 100%.

What about the “incidence of clinical signs in faeces (of 8 pigs)” value ([2]; post mortem) of the same compound?
The value was “one”.

And the “reduction in the number of spirochaetes” value ([2]; posterior colon, post mortem)?
Its value is 88%.

And the “spirochaete shedding in faeces (faecal culture)” value ([3]; after challenge)?
The value was “no signs of faecal spirochaete shedding by day 14”.

What about the “gross pathology associated with dysentery” value ([3]; anterior colon, post mortem) of the same compound?
Its value is “reduced the incidence of pathological symptoms in anterior and posterior colon”.

And the “total weight gained over the challenge period” value ([3]; day 7 prior to challenge to slaughter at days 19 and 20)?
Its value is 6.9 kg.

What about the “mean weight at the end of the trial” value ([3]; days 19 and 20 after infection) of the same compound?
Its value is 12.2 kg.

And the “incidence of clinical signs in faeces (of 8 pigs)” value ([3]; post mortem)?
Its value is “one”.

And the “gross pathology associated with dysentery” value ([3]; posterior colon, post mortem)?
Its value is “reduced the incidence of pathological symptoms in anterior and posterior colon”.

With `CC(=O)OC/C=C(C)/C=C/C=C(C)/C=C/C1=C(C)CCCC1(C)C` [Retinyl acetate] as the compound, how does the “IL-5 level and IL-4- and IL-5-containing cells in small intestinal mucosa” value ([4]; mice fed low-protein diet, 1 mg) read?
The value was “significantly restored the IL-5 level and the number of IL-4- and IL-5-containing cells”.

And the “anti-CT IgA level in intestinal mucosa” value ([4]; mouse, in vivo)?
Its value is “prevented the decline of anti-CT IgA level in the protein-deficient mice”.

Which results are given for `CNC[C@H](O)[C@@H](O)[C@H](O)[C@H](O)CO.Cc1c(Nc2ncccc2C(=O)O)cccc1C(F)(F)F` [flunix, reference compound]?
growth during the (first) week of App challenge ([5]; pig, in vivo): weight loss; growth in the second week of challenge ([5]; pig, in vivo): poorest growth of all groups in the second week of challenge; pleurisy at necropsy (score 0-5) ([5]; pig, in vivo): less pleurisy than the saline controls; weight gain over the 2 week period following challenge with App ([5]; pig, in vivo): lowest growth over the 2 week challenge period; weight gain over the 2 week period following challenge with App ([5]; pig, in vivo, listed as Flunix): poorest performing treatment in terms of growth; percentage of lung affected by App lesions ([5]; vs saline-treated controls): greatly reduced; TNFα production (serum) [6]: failed to inhibit the production of TNFα
